Measured values from the NIST ThermoML archive (doi:10.1021/acs.jced.5b00989).
Numbers after ± are expanded uncertainties.

Assay: molar heat capacity at constant pressure; xn = mol fraction of the nth substance listed
Settings: 100 kPa, Liquid, Small sample (50 mg) DSC, x1 = 0.2

C[P+](c1ccccc1)(c1ccccc1)c1ccccc1.[Br-] [methyltriphenylphosphonium bromide] + OCCO
Settings	molar heat capacity at constant pressure [J/K/mol]
298.15 K	237.6 ± 5.8
300.65 K	238.6 ± 5.8
303.15 K	239.4 ± 5.9
305.65 K	240.8 ± 5.9
308.15 K	241.6 ± 5.9
310.65 K	242.4 ± 5.9
313.15 K	243.4 ± 6
315.65 K	244.5 ± 6
318.15 K	245.2 ± 6
320.65 K	246.1 ± 6
323.15 K	247.2 ± 6.1
325.65 K	247.9 ± 6.1
328.15 K	248.9 ± 6.1
330.65 K	249.8 ± 6.1
333.15 K	250.8 ± 6.1
335.65 K	251.8 ± 6.2
338.15 K	252.7 ± 6.2
340.65 K	253.5 ± 6.2
343.15 K	254.3 ± 6.2
345.65 K	255 ± 6.2
348.15 K	255.5 ± 6.3
350.65 K	255 ± 6.2
353.15 K	256.7 ± 6.3
